Key:
D1 receptor = assay: D1 agonist-induced phosphorylation of PKA substrates in striatal slices; assay type: cell-based, mouse; conditions: 1 μM, 10 min
Method: Dopamine achieves many of its effects in neurons by activation of the D1 class of dopamine receptors, which are positively coupled to the activation of PKA. […] For this purpose, the state of phosphorylation of GluR1, DARPP-32, ARPP-21, and ARPP-16 was determined using phosphorylation state-specific antibodies. […] No significant difference was observed between wildtype and p35^−/− mice in basal levels of phosphorylation of any of these substrates.

Cdk5 [1] = assay: Cdk5 mRNA and protein levels in striatum after chronic cocaine; assay type: in vivo, rat
Excerpt: FIGS. 8A-8C show the increased expression of Cdk5 in inducible transgenic mice overexpressing ΔFosB and in rats chronically treated with cocaine. […] The positions of oligonucleotides encoding ΔFosB and Cdk5 are indicated. […] Representative labelings are shown for sections from inducible transgenic mice on (Dox) or off doxycycline (H2O) (left) and rats treated chronically with saline or cocaine (right). Quantitation of signals in the caudatoputaman (CP) and nucleus accumbens (NA) are shown. […] Representative Cdk5 immunoblots of striatal tissue dissected from inducible transgenic mice on or off doxycycline (left) and from rats treated chronically with saline or cocaine (right) are shown with quantitation. Data represent means ±SEM for n=6; *p<0.05 compared to control, Student's t test.
ΔFosB-inducible transgenic mice were either fed […] doxycycline or denied doxycycline for 12 weeks. Adult male Sprague-Dawley rats initially weighing between 160-240 g were injected with cocaine or vehicle (i.p., 20 mg/kg, […]) at the same time each day for 8 days. All analyses were initiated 12 hr after the final dose. For in situ hybridization studies, [α-^35S]UTP-labeled riboprobes were prepared by in vitro transcription from cDNA clones corresponding to full-length clones of rat Cdk5 [Zheng et al., J. Neurobiol. 35:141-159 (1998)]. Cryostat sections were prepared and hybridized as previously described. After hybridization, the sections were exposed to Biomax MR film (Kodak) for 2-6 days. All autoradiograms were analyzed with a Microcomputer Imaging Device system (M4, Imaging Research, Inc.) as described elsewhere [Le Moine and Bloch, J. Comp. Neurol. 355:418426 (1995)]. Statistical analyses of the data were performed using two-tailed unpaired Student's t test. Striatal tissue was rapidly dissected on ice and homogenized in boiling lysis buffer containing 1% SDS and 50 mM sodium flouride with sonication. Striatal slice preparation and treatment were conducted as previously described [Example 1, Bibb et al., Nature 402:669-671 (1999); Nishi et al., J. Neurosci 17:8147-8155 (1997)]. […]

Cdk5 [2] = assay: Cocaine-induced locomotor activity with intra-accumbens infusion of Cdk5 inhibitors; assay type: in vivo, rat; conditions: rats, intra-accumbens 40 nmol/0.5 μl
Method: Doses of cocaine hydrochloride (15 mg/kg i.p. in sterile 0.9% sodium chloride) were chosen to produce a moderate response to cocaine over successive days. […] Drugs were dissolved in sterile phosphate buffered saline containing 50% DMSO. Intracerebral microinfusions were made bilaterally in volumes of 0.5 μl over a period of 2 min with an additional 2 min allowed to elapse prior to removal of the infusion needles and replacement of the stylettes. […] Drugs were given at the same time each day. Subjects were then placed into the chambers and activity was monitored for 60 min.

mouse striatal slices = assay: Phosphorylation of PKA substrates in striatal slices treated with roscovitine; conditions: 10 μM, 1 h
[3] = test system: dissociated striatal neurons; assay: Whole-cell voltage-gated Ca2+ current, patch-clamp of dissociated striatal neurons; assay type: cell-based, mouse; conditions: 10 μM
Method: The physiological consequence of PKA inhibition by phospho-Thr75 DARPP-32 was also assessed. […] Opin. Neurobiol. 8:330-334 (1998)], were analyzed using patch-clamp recordings of dissociated striatal neurons (FIGS. 3g and 3h). […] This effect was virtually abolished in neurons from DARPP-32 knockout mice (1.6±0.3%, n=5, p<0.01, paired t test).

[4] = rats, 20 mg/kg i.p. daily for 8 days, in situ hybridization

## Oc1cc2c(c(Cl)c1O)CCNCC2c1ccccc1 (stereo not drawn) [SKF 81297]
D1 receptor; p35−/− mouse striatal slices, versus wildtype
  phosphorylation of GluR1, DARPP-32, ARPP-21 and ARPP-16 (PKA sites): to an even greater extent
D1 receptor; wildtype mouse striatal slices
  phosphorylation of GluR1, DARPP-32, ARPP-21 and ARPP-16 (PKA sites): increased

## COC(=O)[C@H]1[C@@H](OC(=O)c2ccccc2)C[C@@H]2CC[C@H]1N2C [cocaine]
Cdk5 [1]; rats exposed chronically, immunoblot
  Cdk5 protein levels in striatal tissue versus control: 180±20%
Cdk5 [1]; [4]
  Cdk5 mRNA levels in caudatoputamen versus saline: 151.8±11.8%
  Cdk5 mRNA levels in nucleus accumbens versus saline: 150.5±10.0%

## Cn1cnc2nc(NCCO)nc(NCc3ccccc3)c21 [iso-olomoucine]
Cdk5 [2]
  locomotor or stereotypic responses to cocaine: failed to enhance

## CC[C@H](CO)Nc1nc(NCc2ccccc2)c2ncn(C(C)C)c2n1 [roscovitine]
Mouse striatal slices; striatal slices from DARPP-32−/− mice
  increase in phospho-Ser845 GluR1: not observed
Mouse striatal slices; striatal slices
  Total GluR1 levels: unaffected
Mouse striatal slices; wildtype mouse striatal slices
  increase in phosphorylation of ARPP-16 (phospho-Ser88): 2.5±0.2 fold
  increase in phosphorylation of GluR1 (phospho-Ser845): 3.2±0.5 fold
[3]; neurons from DARPP-32 knockout mice
  enhancement of whole-cell Ca2+ current: 1.6±0.3%
[3]; wildtype neurons
  enhancement of whole-cell Ca2+ current: 9.7% ±1.0%

Source: patent publication US6989362B1, “Methods of treating dopamine dysregulation using agents that regulate phosphorylation/dephosphorylation in dopamine signaling” (The Rockefeller University, priority 1999, dated 2006)
